PMC10997603, “Cryo-EM structures of pannexin 1 and 3 reveal differences among pannexin isoforms” (Nature Communications, 2024)
Read-outs that look alike come from different tables or passages of the source.

Legend:
[1] = biological target: T1, PANX1 (PANX1WT) (Homo sapiens, UniProt Q96RD7); test: microscale thermophoresis; assay type: binding
T1 construct: full-length; C-terminal TEV site-eGFP-8xHis, GFP/His cut by TEV for purified protein; HEK293S GnTI- (BacMam), GDN-solubilised homoheptamer; transiently transfected HEK293 for patch clamp

[2] = biological target: T2, PANX1 (PANX1WT) (Homo sapiens, UniProt Q96RD7, R217H); test: microscale thermophoresis; settings: read-out: apparent binding affinity
T2 construct: full-length; C-terminal TEV site-eGFP-8xHis, GFP/His cut by TEV for purified protein; HEK293S GnTI- (BacMam), GDN-solubilised homoheptamer; transiently transfected HEK293 for patch clamp

[3] = biological target: T3, PANX1 (PANX1WT) (Homo sapiens, UniProt Q96RD7, R75A); test: microscale thermophoresis; settings: read-out: binding affinity
T3 construct: full-length; C-terminal TEV site-eGFP-8xHis, GFP/His cut by TEV for purified protein; HEK293S GnTI- (BacMam), GDN-solubilised homoheptamer; transiently transfected HEK293 for patch clamp

[4] = biological target: T4, PANX1 (PANX1WT) (Homo sapiens, UniProt Q96RD7, K24A); test: microscale thermophoresis; assay type: binding
T4 construct: full-length; C-terminal TEV site-eGFP-8xHis, GFP/His cut by TEV for purified protein; HEK293S GnTI- (BacMam), GDN-solubilised homoheptamer; transiently transfected HEK293 for patch clamp

[5] = biological target: T5, PANX3 (PANX3WT) (Homo sapiens, UniProt Q96QZ0); test: microscale thermophoresis; assay type: binding; settings: read-out: affinity
T5 construct: full-length, 392 residues; C-terminal TEV site-eGFP-8xHis, GFP/His cut by TEV for purified protein; HEK293S GnTI- (BacMam), GDN-solubilised homoheptamer; transiently transfected HEK293 for patch clamp
T5 sequence (Q96QZ0 1-392): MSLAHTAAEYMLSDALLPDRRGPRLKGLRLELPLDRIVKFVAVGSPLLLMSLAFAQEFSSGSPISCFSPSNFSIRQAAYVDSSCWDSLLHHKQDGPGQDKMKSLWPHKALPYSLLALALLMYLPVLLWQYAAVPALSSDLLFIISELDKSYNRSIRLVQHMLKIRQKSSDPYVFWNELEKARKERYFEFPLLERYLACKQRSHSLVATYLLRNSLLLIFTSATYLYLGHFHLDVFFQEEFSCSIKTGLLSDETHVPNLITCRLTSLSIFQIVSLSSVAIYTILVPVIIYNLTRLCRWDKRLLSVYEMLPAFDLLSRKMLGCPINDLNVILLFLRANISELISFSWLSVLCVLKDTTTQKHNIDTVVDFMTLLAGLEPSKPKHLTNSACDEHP

[6] = biological target: T6, PANX1 (PANX1WT) (Homo sapiens, UniProt Q96RD7, R75D/W74R); test: microscale thermophoresis; assay type: binding
T6 construct: full-length; C-terminal TEV site-eGFP-8xHis, GFP/His cut by TEV for purified protein; HEK293S GnTI- (BacMam), GDN-solubilised homoheptamer; transiently transfected HEK293 for patch clamp

[7] = biological target: T5, PANX3 (PANX3WT); test: whole-cell patch clamp, transfected HEK293; assay type: cell-based; settings: pH 7.4, 23 °C; 100 µM in bath
[8] = biological target: T7, PANX1 (PANX1WT) (Homo sapiens, UniProt Q96RD7, W74R/R75D); test: whole-cell patch clamp, transfected HEK293; assay type: cell-based; settings: pH 7.4, 23 °C; 100 µM in bath
T7 construct: full-length; C-terminal TEV site-eGFP-8xHis, GFP/His cut by TEV for purified protein; HEK293S GnTI- (BacMam), GDN-solubilised homoheptamer; transiently transfected HEK293 for patch clamp

[9] = biological target: T2, PANX1 (PANX1WT); test: whole-cell patch clamp, transfected HEK293; assay type: cell-based; settings: pH 7.4, 23 °C; 100 µM in bath
[10] = biological target: the molecule itself; test: cryo-EM structure; purified channel in GDN detergent, 25 mM Tris pH 8.0, 100 mM KCl, 1% glycerol, 5 mg/ml; 1 mM ATP added for PANX3; C7 symmetry imposed

T3 sequence (Q96RD7 whole entry R75A): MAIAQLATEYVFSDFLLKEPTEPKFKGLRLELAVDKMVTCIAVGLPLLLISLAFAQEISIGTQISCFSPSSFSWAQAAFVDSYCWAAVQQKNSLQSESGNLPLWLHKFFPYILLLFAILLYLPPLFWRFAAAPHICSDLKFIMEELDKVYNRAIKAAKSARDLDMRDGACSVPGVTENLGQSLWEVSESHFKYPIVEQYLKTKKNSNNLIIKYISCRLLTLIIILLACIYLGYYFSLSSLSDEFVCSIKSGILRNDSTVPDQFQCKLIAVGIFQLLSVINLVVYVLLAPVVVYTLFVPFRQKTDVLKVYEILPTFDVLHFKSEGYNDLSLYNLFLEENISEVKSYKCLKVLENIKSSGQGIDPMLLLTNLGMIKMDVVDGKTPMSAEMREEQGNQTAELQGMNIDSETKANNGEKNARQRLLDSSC
T4 sequence (Q96RD7 whole entry K24A): as the sequence (Q96RD7 whole entry R75A) above, with K24A, A75R counted along it

Molecule: Nc1ncnc2c1ncn2[C@@H]1O[C@H](COP(=O)(O)OP(=O)(O)OP(=O)(O)O)[C@@H](O)[C@H]1O [ATP]
- Kd ([1]; read-out: affinity): 21 ± 11 µM

Molecule: Nc1ncnc2c1ncn2[C@@H]1O[C@H](CO[P@](=O)(O)O[P@](=O)(O)O[P@@](=O)(O)S)[C@@H](O)[C@H]1O [ATP-γS]
- Kd ([1]; read-out: apparent binding affinity): 18 ± 4 µM
- Kd [2]: 186 ± 70 µM
- Kd [3]: 114 ± 28 µM
- Kd [4]: 94 ± 15 µM
- Kd [5]: 69 µM
- Kd [6]: 67 ± 17 µM

Molecule: CC1(C)[C@@H](OC(=O)CCC(=O)O)CC[C@]2(C)[C@H]3C(=O)C=C4[C@@H]5C[C@@](C)(C(=O)O)CC[C@]5(C)CC[C@@]4(C)[C@]3(C)CC[C@@H]12 [carbenoxolone]
- inhibition of currents at 100 μM [7]: We observe weaker CBX sensitivity in PANX3, in comparison to PANX1
- inhibition of currents at 100 μM [8]: decreased inhibition of PANX1WR/RD currents with CBX compared to PANX1WT
- inhibition of currents at 100 μM [9]: inhibition of PANX1R217H currents by CBX similar to PANX1WT

B1: human pannexin 3 (PANX3), full length (natural protein, UniProt Q96QZ0 1-392, looked up)
chain: MSLAHTAAEYMLSDALLPDRRGPRLKGLRLELPLDRIVKFVAVGSPLLLMSLAFAQEFSSGSPISCFSPSNFSIRQAAYVDSSCWDSLLHHKQDGPGQDKMKSLWPHKALPYSLLALALLMYLPVLLWQYAAVPALSSDLLFIISELDKSYNRSIRLVQHMLKIRQKSSDPYVFWNELEKARKERYFEFPLLERYLACKQRSHSLVATYLLRNSLLLIFTSATYLYLGHFHLDVFFQEEFSCSIKTGLLSDETHVPNLITCRLTSLSIFQIVSLSSVAIYTILVPVIIYNLTRLCRWDKRLLSVYEMLPAFDLLSRKMLGCPINDLNVILLFLRANISELISFSWLSVLCVLKDTTTQKHNIDTVVDFMTLLAGLEPSKPKHLTNSACDEHP
modifications: N-acetylglucosamine (NAG) at N71
notes: Pannexin 3, human, UniProt Q96QZ0, full length (392 residues); C-terminal TEV site (ENLYFQ) lies between the protein and eGFP-8xHis; residues of the site may be left after cleavage; Residues 1-24, 160-185 and 373-392 are not seen in the map; also called PANX3WT; source: HEK293S GnTI- cells, BacMam virus, purified (Ni-NTA, TEV cleavage, SEC) in GDN; not shown: eGFP, C-terminal, cleaved; 8x His, …
- stoichiometry N [10]: 7

B2: human pannexin 1 (PANX1), full length, wild type (natural protein, UniProt Q96RD7 1-426, looked up)
chain: MAIAQLATEYVFSDFLLKEPTEPKFKGLRLELAVDKMVTCIAVGLPLLLISLAFAQEISIGTQISCFSPSSFSWRQAAFVDSYCWAAVQQKNSLQSESGNLPLWLHKFFPYILLLFAILLYLPPLFWRFAAAPHICSDLKFIMEELDKVYNRAIKAAKSARDLDMRDGACSVPGVTENLGQSLWEVSESHFKYPIVEQYLKTKKNSNNLIIKYISCRLLTLIIILLACIYLGYYFSLSSLSDEFVCSIKSGILRNDSTVPDQFQCKLIAVGIFQLLSVINLVVYVLLAPVVVYTLFVPFRQKTDVLKVYEILPTFDVLHFKSEGYNDLSLYNLFLEENISEVKSYKCLKVLENIKSSGQGIDPMLLLTNLGMIKMDVVDGKTPMSAEMREEQGNQTAELQGMNIDSETKANNGEKNARQRLLDSSC
notes: Pannexin 1, human, UniProt Q96RD7, full length; C-terminal TEV site (ENLYFQ) lies between the protein and eGFP-8xHis; residues of the site may be left after cleavage; Only a map (no model) was deposited; also called PANX1WT; source: HEK293S GnTI- cells, BacMam virus, purified (Ni-NTA, TEV cleavage, SEC) in GDN; not shown: eGFP, C-terminal, cleaved; 8x His, C-terminal, cleaved
- stoichiometry N [10]: 7

B3: human pannexin 1 double mutant W74R/R75D (natural protein, UniProt Q96RD7 1-426, looked up)
chain: MAIAQLATEYVFSDFLLKEPTEPKFKGLRLELAVDKMVTCIAVGLPLLLISLAFAQEISIGTQISCFSPSSFSRDQAAFVDSYCWAAVQQKNSLQSESGNLPLWLHKFFPYILLLFAILLYLPPLFWRFAAAPHICSDLKFIMEELDKVYNRAIKAAKSARDLDMRDGACSVPGVTENLGQSLWEVSESHFKYPIVEQYLKTKKNSNNLIIKYISCRLLTLIIILLACIYLGYYFSLSSLSDEFVCSIKSGILRNDSTVPDQFQCKLIAVGIFQLLSVINLVVYVLLAPVVVYTLFVPFRQKTDVLKVYEILPTFDVLHFKSEGYNDLSLYNLFLEENISEVKSYKCLKVLENIKSSGQGIDPMLLLTNLGMIKMDVVDGKTPMSAEMREEQGNQTAELQGMNIDSETKANNGEKNARQRLLDSSC
notes: Pannexin 1, human, UniProt Q96RD7, full length, with W74R and R75D; TEV site residues may be left after cleavage; also called PANX1_(WR/RD); PANX1 W74R/R75D; source: HEK293S GnTI- cells, BacMam virus, purified (Ni-NTA, TEV cleavage, SEC) in GDN; not shown: eGFP, C-terminal, cleaved; 8x His, C-terminal, cleaved
- binding result [10]: binds

B4: human pannexin 1 germline mutant R217H (natural protein, UniProt Q96RD7 1-426, looked up)
chain: MAIAQLATEYVFSDFLLKEPTEPKFKGLRLELAVDKMVTCIAVGLPLLLISLAFAQEISIGTQISCFSPSSFSWRQAAFVDSYCWAAVQQKNSLQSESGNLPLWLHKFFPYILLLFAILLYLPPLFWRFAAAPHICSDLKFIMEELDKVYNRAIKAAKSARDLDMRDGACSVPGVTENLGQSLWEVSESHFKYPIVEQYLKTKKNSNNLIIKYISCHLLTLIIILLACIYLGYYFSLSSLSDEFVCSIKSGILRNDSTVPDQFQCKLIAVGIFQLLSVINLVVYVLLAPVVVYTLFVPFRQKTDVLKVYEILPTFDVLHFKSEGYNDLSLYNLFLEENISEVKSYKCLKVLENIKSSGQGIDPMLLLTNLGMIKMDVVDGKTPMSAEMREEQGNQTAELQGMNIDSETKANNGEKNARQRLLDSSC
notes: Pannexin 1, human, UniProt Q96RD7, full length, with the germline substitution R217H (TM3); TEV site residues may be left after cleavage; also called PANX1_(R217H); source: HEK293S GnTI- cells, BacMam virus, purified (Ni-NTA, TEV cleavage, SEC) in GDN; not shown: eGFP, C-terminal, cleaved; 8x His, C-terminal, cleaved
- binding result [10]: binds
